Test results from patent US20230241000A1, “GSK3 INHIBITOR-LOADED NANO FORMULATIONS AS A CANCER IMMUNOTHERAPEUTIC” (The Regents of the University of California, priority 2020, published 2023).

Tests used:
Pdcd1 expression = experiment: RT-qPCR of Pdcd1 in anti-CD3 activated primary murine T-cells; format: cell-based, C57BL/6 mouse; conditions: 10 μM, 72 hours, normalized against Gapdh
Protocol: (§1) This is compatible with the translational expression of T-bet, a transcription factor that interferes in PD-1 expression (FIG. 1, panel B).
(§2) Wells of a 96-well tissue culture plate were coated with anti-mouse CD3 antibody (Ultra-LEAF, Biolegend). 7.5 μL of 1 mg/mL antibody solution was diluted in 1 mL of 1×PBS, before 50 μL of the dilution was added to each plate well for 2 hours at 37° C. The wells were then thoroughly washed 3× with 1×PBS.
(§3) T-cells were extracted from C57BL/6 mouse spleens, using a standard procedure with minor modifications (71). Two mouse spleens were mechanically disrupted and the released cells were passed through a 70 μm filter. Red blood cells were lysed using RBC lysis buffer (eBioscience) at 4° C. for 5 minutes. 10 mL of 1×PBS was added to stop the lysis process, following which cells were pelleted at 300×g for 5 minutes. […]
(§4) Cells were collected and RNA was extracted using Direct-zol RNA MiniPrep Plus kits (Zymo), as per the manufacturer's instructions. Extracted RNA was converted into cDNA using SuperScript III First-Strand Synthesis System kits (Invitrogen). cDNA from treated T-cells was analyzed by RT-PCR using a LightCycler 480 instrument (Roche) and the LightCycler 480 SYBR Green I Master kit (Roche), per manufacturer's instructions. cDNA was analyzed using forward and reverse primers for Pdcd1, Tbx21, and Gapdh as a control, as described previously (10, 14). […]

Tbx21 expression = experiment: RT-qPCR of Tbx21 in anti-CD3 activated primary murine T-cells; format: cell-based, C57BL/6 mouse; conditions: 10 μM, 72 hours, normalized against Gapdh
Protocol: as §1, §2, §3, §4

[1] = system: CD8+ T-cells in MC38 tumors; experiment: Flow cytometry of tumor-infiltrating CD8+ T-cells in MC38 tumors; format: in vivo, C57BL/6 mice
Description: In order to address the change in the immunological landscape with treatment, we asked whether sAZD1080 could impact the immune parameters that underpin treatment efficacy for immune checkpoint blocking antibodies. These include the CD8^+ cell number, the abundance of PD-1 expression on these cells, perforin release and the generation of cancer cell death, as reflected by activated caspase 3. For the first analysis, tumor cell digests were used to assess the number of CD8^+/CD107a^+/granzyme B^+ lymphocytes by flow cytometry (14, 30). […] In order to assess the status of PD-1 expression on CD8+ cells, flow cytometry was used to assess the % of […] cells in the tumor digests (14, 31).
Tumors were harvested from MC38 mice after sacrifice. Tumors larger than 100 mm^3 were divided in two, with one half preserved for histology and the other half used to conduct flow cytometry. To prepare samples for flow cytometry, tumor chunks of 2-3 mm^3 were incubated in an enzyme cocktail (1 mg/mL collagenase type IV, 2000 U DNase type IV, 0.1 mg/mL hyaluronidase type V in 1×HBSS) for 1 hour, and the digests passed through a 70 μm nylon filter. Cells were pelleted and washed in HBSS.
Cells were diluted in cell staining buffer, pelleted by centrifuging at 350×g for 5 minutes, and washed twice. […]

[2] = Safety analysis in MC38 mice (animal weight, blood chemistry, organ H&E histology); format: in vivo, C57BL/6 mice; conditions: serum at sacrifice
Protocol: While there is sparse literature on the use of AZD1080 in animal studies, this agent had to be discontinued in a phase I clinical trial in humans due to nephrotoxicity (15).
The histology preparation and staining of tumor tissue and mouse organs was performed in the Pathology Core Facility of the UCLA Jonsson Comprehensive Cancer Center. Tissues were fixed in 10% neutral-buffered formalin for 24 hours, then gradually dehydrated in 25-75% ethanol solutions over 3 days. Tissues were embedded in paraffin, sectioned at 4 μm thickness, and stained by anti-CD8, anti-cleaved caspase 3, anti-perforin, anti-PD-1, or haemotoxylin and eosin (H&E). Slides were digitally scanned for analysis using Aperio ImageScope software (Leica Biosystems, Buffalo Grove, Ill.). Four fields of view were analyzed per tumor at 20× magnification, with all positively stained cells counted within the field and averaged across fields. The investigator was blinded with respect to the animal groups to avoid bias during counting. Fields of view were chosen to avoid the tumor periphery and processing artifacts.
At the time of sacrifice, blood was obtained by cardiac puncture from MC38 tumor growing animals and collected into Greiner Bio-One MiniCollect Capillary Blood collection system tubes. Tubes were centrifuged as per manufacturer's instructions to separate serum from blood cells. The serum was frozen at […] and subsequently used, to obtain a comprehensive serum chemistry panel, develop by IDEXX Laboratories (Westbrook, Me.), for use in the UCLA Division of Laboratory Animal Medicine (DLAM).

GSK3 = conditions: values provided by chemical vendors (Cayman Chemical, Selleck Chemicals); cited from earlier work
[3] = humans; literature (15); cited from earlier work

N#Cc1ccc2[nH]c(O)c(-c3ccc(CN4CCOCC4)cn3)c2c1 [AZD1080]
reduction in Pdcd1 mRNA expression (Pdcd1 expression): ~6 fold | Tbx21 mRNA expression (Tbx21 expression): increased | % of CD8/PD-1+ cells in the tumor digests [1]: did not impact | albumin:globulin ratio [2]: depress | blood chemistry panel (overall) [2]: more variation in blood chemistry | total bilirubin and BUN levels [2]: reductions | IC50 (GSK3): 31 nM | toxicity leading to discontinuation in phase I clinical trial [3]: nephrotoxicity
